Source: PMC5896266, “Development of Matrix Metalloproteinase-2 Inhibitors for Cardioprotection” (Frontiers in Pharmacology, 2018)

What was measured:
[1] = molecular target: MMP-13 (Homo sapiens, UniProt P45452); assay: MMP-13 inhibition (inhibitory profile); format: biochemical; details: Table 2
Description: (§1) The compounds were measured for MMP-1, 2, 9, 13 to determine their inhibitory profile. Efficiency Index amplifies the two major required effects, selectivity against MMP-1 and the inhibitory activity.

[2] = molecular target: MMP-9 (Homo sapiens, UniProt P14780); assay: MMP-9 inhibition (inhibitory profile); format: biochemical; details: Table 2
Sequence of MMP-9 (P14780 94-707, species assumed): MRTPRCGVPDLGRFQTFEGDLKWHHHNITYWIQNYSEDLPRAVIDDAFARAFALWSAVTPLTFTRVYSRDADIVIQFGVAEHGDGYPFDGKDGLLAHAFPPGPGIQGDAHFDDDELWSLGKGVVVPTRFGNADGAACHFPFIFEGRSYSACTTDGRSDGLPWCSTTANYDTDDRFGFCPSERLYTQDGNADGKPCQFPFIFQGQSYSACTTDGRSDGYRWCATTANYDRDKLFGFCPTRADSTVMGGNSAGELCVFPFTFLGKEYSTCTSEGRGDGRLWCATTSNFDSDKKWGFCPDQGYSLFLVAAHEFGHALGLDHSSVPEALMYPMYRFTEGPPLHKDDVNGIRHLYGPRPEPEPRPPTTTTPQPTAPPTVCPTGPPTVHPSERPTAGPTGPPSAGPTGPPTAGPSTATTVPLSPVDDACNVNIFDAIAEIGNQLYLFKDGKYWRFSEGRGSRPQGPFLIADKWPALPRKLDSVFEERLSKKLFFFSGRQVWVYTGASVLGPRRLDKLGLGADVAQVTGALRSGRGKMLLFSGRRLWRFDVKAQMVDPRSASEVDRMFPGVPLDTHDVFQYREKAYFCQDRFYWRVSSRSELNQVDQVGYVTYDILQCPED
Description: as §1

[3] = test system: neonatal rat cardiac myocytes; assay: Cell viability of neonatal rat cardiac myocytes subjected to simulated ischemia/reperfusion; format: cell-based; details: comparison among the tested lead candidates
Description: For our cell viability experiments, 3 day-old cardiomyocytes plated onto 24-well plates were tested under normoxic condition or subjected to simulated ischemia (SI). The normoxic cardiomyocytes were kept under normoxic conditions, i.e., the growth medium was changed to a normoxic solution (in mM: NaCl 125, KCl 5.4, NaH2PO4 1.2, MgCl2 0.5, HEPES 20, glucose 15, taurine 5, CaCl2 1, creatine 2.5, BSA 0.1%, pH 7.4, 310 mOsm/l) (Li et al., [2004]) and the cells were incubated under 95% air and 5% CO2 at 37°C for 2.5 h. […] The cells were then subjected to the following treatments during SI or normoxic protocol: vehicle control or MMP inhibitors at different doses calculated according to IC doses in vitro. […]
Figure 3 Experimental protocol for cell culture studies and for the ex vivo rat heart model of AMI. […] At the end of the reperfusion, cell viability was determined by using calcein flurescence. […] Subsequently, 2 h reperfusion was applied and then infarct size was determined. […]
Cell viability was assessed by a calcein and propidium iodine assay performed in each group after 2 h reoxygenation. […] Then the calcein solution was replaced with fresh PBS and the fluorescence intensity of each well was detected by a fluorescent plate reader (FluoStar Optima, BMG Labtech, Ortenberg, Germany). […]

[4] = molecular target: T1, Human MMP-2 catalytic domain (Homo sapiens, UniProt P08253, DEL222-396); assay: Fluorometric MMP-2 inhibition assay (MTS), catalytic domain; format: biochemical
T1 construct: Human MMP-2 catalytic domain (residues 110-221, 397-455); made in house
T1 sequence (P08253 with tags, fused parts or gaps DEL222-396 limits assumed): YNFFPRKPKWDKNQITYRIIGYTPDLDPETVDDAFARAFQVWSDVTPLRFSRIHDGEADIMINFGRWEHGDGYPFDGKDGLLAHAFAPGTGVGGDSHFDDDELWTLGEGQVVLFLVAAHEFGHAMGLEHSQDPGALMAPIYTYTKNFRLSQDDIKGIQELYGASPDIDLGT
Description: In vitro MMP-2 activity was then measured, using a fluorometric assay in a 384 well format. Human MMP-2 catalytic domain (residues 110-221, 397-455) (Feng et al., [2000]) was expressed in E. coli in form of inclusion bodies. The protein was refolded and then purified by means of Ni-NTA affinity and anion exchange chromatography. Inhibition assays were carried out in 50 mM Tris, 5 mM CaCl2, 300 mM NaCl, 20 μM ZnSO4, pH = 7.5 buffer. For inhibition studies the catalytic domain of the enzyme was pre-incubated with varying amount of inhibitor for 30 min. […] After 1 h incubation at 37°C the fluorescence was detected using a Wallac 1420 Victor2 microplate reader at 320 nm/405 nm Ex/Em wavelength. As an alternative substrate we also used 5-FAM-Pro-Leu-Gly-Leu-Dap(QXL™ 520)-Ala-Arg-NH2, where the fluorescence was detected at 485 nm/520 nm. For each inhibitor candidate, the percentage of inhibition was determined in duplicate experiments at six inhibitor concentrations, chosen to observe a 5–95% range of inhibition.
Since hydroxamic acids are reported as the primary zinc-binding motif, we intended to select such a library from the AMRI 200,000 member non-exclusive compound repository as a starting point of our drug discovery efforts. Since only a few compounds were available in the repository as hydroxamic acids and the conversion of acids to hydroxamic acids were not applicable to HT parallel synthesis, we decided first to select free acids from the AMRI's compound collection. […] The selected acids were screened in a fluorescent assay using a recombinant human MMP-2 catalytic fragment and a synthetic peptide substrate. […] The hydroxamic acid pairs of the previously measured acids were then tested.

IC50 [1]: 1.8 µM
IC50 [2]: 13 µM
selectivity over MMP-1 ([4]; MMP-2 vs MMP-1, Table 2 values): 1.5 fold
IC50 ([4]; Table 2): 6.6 µM
Compound: O=C(O)c1c[nH]c(CN(Cc2ccc(F)cc2)Cc2ccc(OCc3ccccc3)cc2)n1 [MMPI-1154]
increase in cell viability during simulated I/R [3]: highest increase in cell viability
